Experimental data from the NIST ThermoML archive (doi:10.1021/je5009679).

Conditions: Liquid; for viscosity: Concentric cylinders viscometry

CCOP(=O)([O-])OCC.CCn1cc[n+](C)c1 [1-ethyl-3-methylimidazolium diethyl phosphate]
101.33 kPa
Conditions | viscosity [mPa·s]
293.15 K | 664.7
303.15 K | 317.3
313.15 K | 173.9
323.15 K | 103.8
333.15 K | 66.37
343.15 K | 44.92
353.15 K | 31.86
363.15 K | 23.5
373.15 K | 17.92

Conditions | mass density [kg/m3]
293.15 K, 101.33 kPa, Vibrating tube method | 1148.2
303.15 K, 101.33 kPa, Vibrating tube method | 1141.2
311.4 K, 10000 kPa, Bellows volumetry | 1140.5
311.4 K, 20000 kPa, Bellows volumetry | 1145.4
311.4 K, 30000 kPa, Bellows volumetry | 1150.1
311.4 K, 40000 kPa, Bellows volumetry | 1154.6
311.4 K, 50000 kPa, Bellows volumetry | 1158.9
311.4 K, 60000 kPa, Bellows volumetry | 1163
311.4 K, 70000 kPa, Bellows volumetry | 1167
311.4 K, 80000 kPa, Bellows volumetry | 1170.9
311.4 K, 90000 kPa, Bellows volumetry | 1174.6
311.4 K, 100000 kPa, Bellows volumetry | 1178.3
311.4 K, 110000 kPa, Bellows volumetry | 1181.8
311.4 K, 120000 kPa, Bellows volumetry | 1185.2
311.4 K, 130000 kPa, Bellows volumetry | 1188.6
311.4 K, 140000 kPa, Bellows volumetry | 1191.8
311.4 K, 150000 kPa, Bellows volumetry | 1195.2
311.4 K, 160000 kPa, Bellows volumetry | 1198.2
311.4 K, 170000 kPa, Bellows volumetry | 1201.4
311.4 K, 180000 kPa, Bellows volumetry | 1204.4
311.4 K, 190000 kPa, Bellows volumetry | 1207.3
311.4 K, 200000 kPa, Bellows volumetry | 1210.3
313.15 K, 101.33 kPa, Vibrating tube method | 1134.4
323.15 K, 101.33 kPa, Vibrating tube method | 1127.8
331.3 K, 10000 kPa, Bellows volumetry | 1127.5
331.3 K, 20000 kPa, Bellows volumetry | 1132.6
331.3 K, 30000 kPa, Bellows volumetry | 1137.6
331.3 K, 40000 kPa, Bellows volumetry | 1142.3
331.3 K, 50000 kPa, Bellows volumetry | 1146.8
331.3 K, 60000 kPa, Bellows volumetry | 1151.2
331.3 K, 70000 kPa, Bellows volumetry | 1155.3
331.3 K, 80000 kPa, Bellows volumetry | 1159.4
331.3 K, 90000 kPa, Bellows volumetry | 1163.2
331.3 K, 100000 kPa, Bellows volumetry | 1167.1
331.3 K, 110000 kPa, Bellows volumetry | 1170.7
331.3 K, 120000 kPa, Bellows volumetry | 1174.4
331.3 K, 130000 kPa, Bellows volumetry | 1177.8
331.3 K, 140000 kPa, Bellows volumetry | 1181.3
331.3 K, 150000 kPa, Bellows volumetry | 1184.8
331.3 K, 160000 kPa, Bellows volumetry | 1187.9
331.3 K, 170000 kPa, Bellows volumetry | 1191
331.3 K, 180000 kPa, Bellows volumetry | 1194.1
331.3 K, 190000 kPa, Bellows volumetry | 1197.3
331.3 K, 200000 kPa, Bellows volumetry | 1200.2
333.15 K, 101.33 kPa, Vibrating tube method | 1121.2
343.15 K, 101.33 kPa, Vibrating tube method | 1114.6
351.4 K, 10000 kPa, Bellows volumetry | 1114.6
351.4 K, 20000 kPa, Bellows volumetry | 1120
351.4 K, 30000 kPa, Bellows volumetry | 1125.2
351.4 K, 40000 kPa, Bellows volumetry | 1130.2
351.4 K, 50000 kPa, Bellows volumetry | 1134.9
351.4 K, 60000 kPa, Bellows volumetry | 1139.5
351.4 K, 70000 kPa, Bellows volumetry | 1144
351.4 K, 80000 kPa, Bellows volumetry | 1148.1
351.4 K, 90000 kPa, Bellows volumetry | 1152.2
351.4 K, 100000 kPa, Bellows volumetry | 1156.1
351.4 K, 110000 kPa, Bellows volumetry | 1159.9
351.4 K, 120000 kPa, Bellows volumetry | 1163.6
351.4 K, 130000 kPa, Bellows volumetry | 1167.2
351.4 K, 140000 kPa, Bellows volumetry | 1170.7
351.4 K, 150000 kPa, Bellows volumetry | 1174.2
351.4 K, 160000 kPa, Bellows volumetry | 1177.5
351.4 K, 170000 kPa, Bellows volumetry | 1180.8
351.4 K, 180000 kPa, Bellows volumetry | 1184
351.4 K, 190000 kPa, Bellows volumetry | 1187.1
351.4 K, 200000 kPa, Bellows volumetry | 1190.3
353.15 K, 101.33 kPa, Vibrating tube method | 1108
363.15 K, 101.33 kPa, Vibrating tube method | 1101.5
371.6 K, 10000 kPa, Bellows volumetry | 1102
371.6 K, 20000 kPa, Bellows volumetry | 1107.7
371.6 K, 30000 kPa, Bellows volumetry | 1113.3
371.6 K, 40000 kPa, Bellows volumetry | 1118.5
371.6 K, 50000 kPa, Bellows volumetry | 1123.4
371.6 K, 60000 kPa, Bellows volumetry | 1128.2
371.6 K, 70000 kPa, Bellows volumetry | 1132.7
371.6 K, 80000 kPa, Bellows volumetry | 1137.2
371.6 K, 90000 kPa, Bellows volumetry | 1141.3
371.6 K, 100000 kPa, Bellows volumetry | 1145.5
371.6 K, 110000 kPa, Bellows volumetry | 1149.4
371.6 K, 120000 kPa, Bellows volumetry | 1153.2
371.6 K, 130000 kPa, Bellows volumetry | 1157
371.6 K, 140000 kPa, Bellows volumetry | 1160.6
371.6 K, 150000 kPa, Bellows volumetry | 1164.2
371.6 K, 160000 kPa, Bellows volumetry | 1167.7
371.6 K, 170000 kPa, Bellows volumetry | 1171
371.6 K, 180000 kPa, Bellows volumetry | 1174.3
371.6 K, 190000 kPa, Bellows volumetry | 1177.5
371.6 K, 200000 kPa, Bellows volumetry | 1180.8
373.15 K, 101.33 kPa, Vibrating tube method | 1094.9
391.6 K, 10000 kPa, Bellows volumetry | 1089.8
391.6 K, 20000 kPa, Bellows volumetry | 1095.6
391.6 K, 30000 kPa, Bellows volumetry | 1101.5
391.6 K, 40000 kPa, Bellows volumetry | 1107
391.6 K, 50000 kPa, Bellows volumetry | 1112.3
391.6 K, 60000 kPa, Bellows volumetry | 1117.2
391.6 K, 70000 kPa, Bellows volumetry | 1122
391.6 K, 80000 kPa, Bellows volumetry | 1126.6
391.6 K, 90000 kPa, Bellows volumetry | 1131
391.6 K, 100000 kPa, Bellows volumetry | 1135.2
391.6 K, 110000 kPa, Bellows volumetry | 1139.4
391.6 K, 120000 kPa, Bellows volumetry | 1143.4
391.6 K, 130000 kPa, Bellows volumetry | 1147.1
391.6 K, 140000 kPa, Bellows volumetry | 1151
391.6 K, 150000 kPa, Bellows volumetry | 1154.6
391.6 K, 160000 kPa, Bellows volumetry | 1158.1
391.6 K, 170000 kPa, Bellows volumetry | 1161.5
391.6 K, 180000 kPa, Bellows volumetry | 1165
391.6 K, 190000 kPa, Bellows volumetry | 1168.2
391.6 K, 200000 kPa, Bellows volumetry | 1171.5
411.7 K, 10000 kPa, Bellows volumetry | 1077.9
411.7 K, 20000 kPa, Bellows volumetry | 1084.3
411.7 K, 30000 kPa, Bellows volumetry | 1090.4
411.7 K, 40000 kPa, Bellows volumetry | 1096.2
411.7 K, 50000 kPa, Bellows volumetry | 1101.7
411.7 K, 60000 kPa, Bellows volumetry | 1106.9
411.7 K, 70000 kPa, Bellows volumetry | 1111.9
411.7 K, 80000 kPa, Bellows volumetry | 1116.7
411.7 K, 90000 kPa, Bellows volumetry | 1120.6
411.7 K, 100000 kPa, Bellows volumetry | 1125.1
411.7 K, 110000 kPa, Bellows volumetry | 1129.3
411.7 K, 120000 kPa, Bellows volumetry | 1133.4
411.7 K, 130000 kPa, Bellows volumetry | 1137.4
411.7 K, 140000 kPa, Bellows volumetry | 1141.2
411.7 K, 150000 kPa, Bellows volumetry | 1145
411.7 K, 160000 kPa, Bellows volumetry | 1148.7
411.7 K, 170000 kPa, Bellows volumetry | 1152.3
411.7 K, 180000 kPa, Bellows volumetry | 1155.8
411.7 K, 190000 kPa, Bellows volumetry | 1159.2
411.7 K, 200000 kPa, Bellows volumetry | 1162.6
